# Laboratory results as given in patent US9770452B2, “Quinoxaline derivatives as GPR6 modulators” (Takeda Pharmaceutical Company Limited, priority 2012, dated 2017).
# pIC50: −log10 of the molar value. Counter-ions that a name gives are not always drawn.
# Biological target: T1, GPR6 receptor (Homo sapiens, UniProt P46095)
# T1 construct: expressed in transfected cells
# Assay: Inhibition of cAMP Activity of GPR6 In Vitro Assay (CHO-K1 cells, HTRF cAMP)
# Format: cell-based
# Conditions: compounds of Compound Table 1; inhibition of constitutive cAMP activity of GPR6 expressed in CHO-K1 cells; approximate IC50; read-out: IC50
# Outline: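 CHO-K1 cells with doxycycline-induced (1 μg/ml, 20 h) GPR6 treated with compounds 45 min at 37 °C in Ringer's buffer (pH 7.4) with 0.5% fatty acid free BSA. Constitutive cAMP measured by Lance HTRF Ultra cAMP; IC50 from four-parameter logistic fit.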
# T1 sequence (P46095 whole entry): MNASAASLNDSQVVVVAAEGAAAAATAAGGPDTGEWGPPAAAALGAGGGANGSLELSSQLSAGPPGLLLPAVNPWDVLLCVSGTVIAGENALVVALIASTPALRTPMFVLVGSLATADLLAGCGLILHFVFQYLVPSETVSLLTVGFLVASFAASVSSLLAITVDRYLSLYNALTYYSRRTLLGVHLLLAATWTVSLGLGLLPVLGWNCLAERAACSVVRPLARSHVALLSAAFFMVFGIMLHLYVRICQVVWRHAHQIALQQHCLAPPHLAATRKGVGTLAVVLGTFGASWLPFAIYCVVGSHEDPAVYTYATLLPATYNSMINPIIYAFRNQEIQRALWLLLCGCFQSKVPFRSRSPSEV
row,Compound,pIC50
1,"N-ethyl-3-(4-(2-fluoro-4-methoxyphenoxy)piperidin-1-yl)pyrido[3,4-b]pyrazin-2-amine, 2,2,2-trifluoroacetic acid salt [Cpd 622]",7.54
2,"2-((1-(2-(cyclopropylamino)pyrido[3,4-b]pyrazin-3-yl)piperidin-4-yl)oxy)benzonitrile [Cpd 574]",5.32
3,"c1ccc2nc(N3CCN(Cc4coc5ccccc45)CC3)c(NC3CC3)nc2c1 [Cpd 100, 3-(4-(benzofuran-3-ylmethyl)piperazin-1-yl)-N-cyclopropylquinoxalin-2-amine]",5.40
4,"(R)-3-(4-((2,4-difluorophenyl)fluoromethyl)piperidin-1-yl)-N-isopropylpyrazino[2,3-d]pyridazin-2-amine, 2,2,2-trifluoroacetic acid salt [Cpd 640]",7.14
5,"N-cyclopropyl-3-(4-(4-fluorobenzyl)piperidin-1-yl)pyrido[3,4-b]pyrazin-2-amine, 2,2,2-trifluoroacetic acid salt [Cpd 421]",5.08
6,"3-(4-(4-chloro-2-fluorophenoxy)piperidin-1-yl)-N-isopropylpyrazino[2,3-d]pyridazin-2-amine, 2,2,2-trifluoroacetic acid salt [Cpd 643]",7.82
7,"3-(4-(4-chloro-2-fluorophenoxy)piperidin-1-yl)-2-(cyclopropylamino)quinoxaline-6-carbonitrile, 2,2,2-trifluoroacetic acid salt [Cpd 465]",7.96
8,"N-cyclopropyl-3-(4-(2,3,5-trichlorobenzyl)piperazin-1-yl)quinoxalin-2-amine, 2,2,2-trifluoroacetic acid salt [Cpd 221]",4.69
9,"(1-(2-(cyclopropylamino)pyrido[3,4-b]pyrazin-3-yl)piperidin-4-yl)(2-(methylthio)phenyl)methanone, 2,2,2-trifluoroacetic acid salt [Cpd 581]",8.22
10,"3-(4-(2,5-difluorobenzoyl)piperidin-1-yl)-2-(isopropylamino)-N,N-dimethylpyrido[3,4-b]pyrazine-7-carboxamide, 2,2,2-trifluoroacetic acid salt [Cpd 635]",7.40
11,"(2-chloro-4-fluorophenyl)(4-(2-(cyclopropylamino)pyrido[3,4-b]pyrazin-3-yl)piperazin-1-yl)methanone, 2,2,2-trifluoroacetic acid salt [Cpd 363]",6.64
12,"CC(C)CCNc1nc2ccccc2nc1N1CCN(Cc2cc(Cl)ccc2Cl)CC1 [Cpd 115, 3-(4-(2,5-dichlorobenzyl)piperazin-1-yl)-N-isopentylquinoxalin-2-amine, 2,2,2-trifluoroacetic acid salt]",5.40
13,"Fc1ccc(Nc2nc3ccccc3nc2N2CCN(Cc3cccc(Cl)c3)CC2)cc1 [Cpd 38, 3-(4-(3-chlorobenzyl)piperazin-1-yl)-N-(4-fluorophenyl)quinoxalin-2-amine, 2,2,2-trifluoroacetic acid salt]",5.24
14,"N-cyclopropyl-3-(4-((5-methylisoxazol-3-yl)methyl)piperazin-1-yl)quinoxalin-2-amine, 2,2,2-trifluoroacetic acid salt [Cpd 158]",6.36
15,"3-(4-((4-chloro-2,5-dimethylphenyl)sulfonyl)piperazin-1-yl)-2-(cyclopropylamino)quinoxaline-6-carbonitrile, 2,2,2-trifluoroacetic acid salt [Cpd 281]",6.02
16,"N-cyclopropyl-3-(4-(4-fluorobenzyl)piperazin-1-yl)pyrido[3,4-b]pyrazin-2-amine, 2,2,2-trifluoroacetic acid salt [Cpd 291]",6.85
17,"3-(4-((4-bromo-2-fluorophenyl)sulfonyl)piperazin-1-yl)-2-(cyclopropylamino)quinoxaline-6-carbonitrile, 2,2,2-trifluoroacetic acid salt [Cpd 285]",5.87
18,"COc1ccc(OC2CCN(c3nc4c(C(=O)N(C)C)nccc4nc3NC3CC3)CC2)c(F)c1 [Cpd 604, 2-(cyclopropylamino)-3-(4-(2-fluoro-4-methoxyphenoxy)piperidin-1-yl)-N,N-dimethylpyrido[3,4-b]pyrazine-5-carboxamide]",7.27
19,"3-(4-((4-(tert-butyl)phenyl)sulfonyl)piperazin-1-yl)-2-(cyclopropylamino)quinoxaline-6-carbonitrile, 2,2,2-trifluoroacetic acid salt [Cpd 280]",6.35
20,"CC(C)CNc1nc2ccccc2nc1N1CCN(Cc2cc(Cl)ccc2Cl)CC1 [Cpd 110, 3-(4-(2,5-dichlorobenzyl)piperazin-1-yl)-N-isobutylquinoxalin-2-amine, 2,2,2-trifluoroacetic acid salt]",5.22
21,"O=S(=O)(c1ccccc1)N1CCN(c2nc3ccccc3nc2NC2CC2)CC1 [Cpd 105, N-cyclopropyl-3-(4-(phenylsulfonyl)piperazin-1-yl)quinoxalin-2-amine]",5.25
22,"(S)-3-(cyclopropylamino)-2-(4-((2,4-difluorophenyl)fluoromethyl)piperidin-1-yl)pyrido[3,4-b]pyrazine-7-carbonitrile [Cpd 550]",7.77
23,(4-bromo-3-fluorophenyl)(4-(3-(cyclopropylamino)-7-fluoroquinoxalin-2-yl)piperazin-1-yl)methanone [Cpd 247],5.83
24,"N-cyclopropyl-3-(4-((4-fluorophenyl)sulfonyl)piperazin-1-yl)pyrido[3,4-b]pyrazin-2-amine, 2,2,2-trifluoroacetic acid salt [Cpd 288]",5.58
25,"4-((1-(2-(cyclopropylamino)pyrido[3,4-b]pyrazin-3-yl)piperidin-4-yl)oxy)-N,N-dimethylbenzamide, 2,2,2-trifluoroacetic acid salt [Cpd 588]",5.56
26,"3-(4-(2,4-difluorobenzyl)piperidin-1-yl)-N-(2-methoxyethyl)pyrido[3,4-b]pyrazin-2-amine, 2,2,2-trifluoroacetic acid salt [Cpd 519]",6.60
27,"(4-chloro-3-methylphenyl)(4-(3-(pyridin-3-ylamino)quinoxalin-2-yl)piperazin-1-yl)methanone, 2,2,2-trifluoroacetic acid salt [Cpd 230]",6.10
28,"(2-bromopyridin-3-yl)(1-(2-(cyclopropylamino)pyrido[3,4-b]pyrazin-3-yl)piperidin-4-yl)methanone, 2,2,2-trifluoroacetic acid salt [Cpd 586]",5.64
29,"2-(cyclopropylamino)-3-(4-(2,4-difluorobenzyl)piperidin-1-yl)quinoxaline-6-carbonitrile, 2,2,2-trifluoroacetic acid salt [Cpd 416]",5.82
